Structures are written as SMILES. Calls of active or inactive are those of the source. Some results are limits rather than exact numbers.

The target of one test is Cytochrome P450 2D6 (Homo sapiens, UniProt P10635). The test can be described thus: qHTS Assay for Inhibitors and Substrates of Cytochrome P450 2D6. [Related pubchem assays: 410 ]. The test is classed as ADME. The conditions noted are these: read-out: Potency.
A further test concerns the target Galanin receptor type 2 (Homo sapiens, UniProt O43603). Put plainly: Dose Response cell-based high-throughput screening assay to identify antagonists of galanin receptor 2 (GALR2). [Related pubchem assays: 828, 866 ]. It is filed as functional.
The target of a further test is Vasopressin V1a receptor (Homo sapiens, UniProt P37288). Put plainly: Counterscreen for Oxytocin Receptor (OXTR) agonists: Fluorescence-based cell-based high throughput dose response assay to identify agonists of the vasopressin 1 receptor (V1R). [Related pubchem assays: 2435 (Primary screen (OXTR agonists in singlicate)), 434991 (Counterscreen (V1R agonists in triplicate)), 2482 (Summary (OXTR agonists)) …. The test is classed as functional. On the technique in general: Counterscreens check selectivity or assay interference.

The target of the next test is Ion channel NompC (Danio rerio, UniProt Q7T1G6). Put plainly: Dose response cell-based high-throughput screening assay for agonists of the transient receptor potential channel N1 (TRPN1). [Related pubchem assays (depositor defined):AID1424, AID1448]. The test is classed as functional.
For a further test, the target named is Oxytocin receptor (Homo sapiens, UniProt P30559). Put plainly: Fluorescence-based cell-based high throughput dose response assay for agonists of the Oxytocin Receptor (OXTR). [Related pubchem assays: 2435 (Primary screen (OXTR agonists in singlicate)), 434991 (Counterscreen (V1R agonists in triplicate)), 2482 (Summary (OXTR agonists)), 434963 (Confirmation screen (OXTR agonists in triplicate))]. It is filed as functional.

For the next test, the target named is T1, Mucolipin-3 (Homo sapiens, UniProt Q8TDD5).
T1 sequence (Q8TDD5 whole entry): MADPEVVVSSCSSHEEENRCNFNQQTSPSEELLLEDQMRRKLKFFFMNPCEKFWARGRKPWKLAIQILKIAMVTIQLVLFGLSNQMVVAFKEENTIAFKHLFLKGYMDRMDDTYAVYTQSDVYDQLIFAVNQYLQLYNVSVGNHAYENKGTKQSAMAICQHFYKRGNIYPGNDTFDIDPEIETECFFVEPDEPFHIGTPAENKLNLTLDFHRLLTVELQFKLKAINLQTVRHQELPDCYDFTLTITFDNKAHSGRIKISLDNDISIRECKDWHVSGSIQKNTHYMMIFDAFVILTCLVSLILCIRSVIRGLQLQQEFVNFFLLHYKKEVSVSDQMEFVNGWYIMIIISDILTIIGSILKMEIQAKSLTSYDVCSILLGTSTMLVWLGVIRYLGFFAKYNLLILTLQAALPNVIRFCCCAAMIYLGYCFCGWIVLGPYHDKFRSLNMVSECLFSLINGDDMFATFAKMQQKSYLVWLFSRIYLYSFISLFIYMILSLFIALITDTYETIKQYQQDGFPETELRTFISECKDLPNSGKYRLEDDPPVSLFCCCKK
Put plainly: Fluorescence counterscreen assay for […] agonists: dose response cell-based high-throughput screening assay to identify agonists of the transient receptor potential channel ML3 (TRPML3). [Related pubchem assays: 1424, 1448 ]. It is filed as functional.

Test [1] concerns the target T2, Heat shock 70 kDa protein 1A (Homo sapiens, UniProt P0DMV8). Put plainly: Hsp70 inhibitors, biochemical, TR-FRET (AID 786). In general terms: In TR-FRET formats the signal depends on donor and acceptor labels being close together.
In test [2] the target is T2, Heat shock 70 kDa protein 1A. The test can be described thus: Hsp70 inhibitors, probe displacement, primary screen, biochemical, fluorescence polarization (AID 583).
Another test has as its target Aspartyl aminopeptidase (Plasmodium falciparum 3D7, UniProt Q8I2J3).
A further test addresses Procathepsin L (Homo sapiens, UniProt P07711).
The target in another test is Large T antigen (Simian virus 40, UniProt P03070). The test is classed as functional, Betapolyomavirus macacae.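 Further: Confirmatory-stage PubChem screen for compounds that inhibit SV40 T antigen.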
Test [3] can be described thus: microbe, parasite or virus in culture. The test is classed as functional. The conditions noted are these: Mycobacterium tuberculosis.
Test [4] has as its target Mannose-6-phosphate isomerase (Homo sapiens, UniProt P34949). Put plainly: human PMI inhibitors, high substrate, primary screen, biochemical, fluorescence intensity, high mannose 6-phosphate (AID 1220).
The target in test [5] is DNA dC->dU-editing enzyme APOBEC-3A (Homo sapiens, UniProt P31941). Put plainly: APOBEC3A DNA deaminase inhibitors, dose response, biochemical (AID 504722). It is filed as functional.
The next test has as its target T3, Hexokinase (Trypanosoma brucei, UniProt Q38C41).
T3 sequence (Q38C41 whole entry): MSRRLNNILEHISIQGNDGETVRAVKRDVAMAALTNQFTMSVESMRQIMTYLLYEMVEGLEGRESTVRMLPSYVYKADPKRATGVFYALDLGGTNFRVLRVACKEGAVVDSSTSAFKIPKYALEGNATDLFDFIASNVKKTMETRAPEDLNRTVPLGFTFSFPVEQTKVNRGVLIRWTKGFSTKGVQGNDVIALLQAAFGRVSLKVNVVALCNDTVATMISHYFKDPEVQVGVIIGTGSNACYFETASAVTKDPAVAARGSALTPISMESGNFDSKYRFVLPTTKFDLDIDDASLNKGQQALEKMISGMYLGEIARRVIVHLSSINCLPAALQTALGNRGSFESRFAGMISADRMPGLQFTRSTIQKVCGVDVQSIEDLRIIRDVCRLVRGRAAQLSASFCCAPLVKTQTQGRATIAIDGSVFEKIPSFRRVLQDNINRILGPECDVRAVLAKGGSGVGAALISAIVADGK
The test can be described thus: Confirmation assay for inhibitors of Trypanosoma brucei hexokinase 1-Analogue-first series. [Related pubchem assays (depositor defined):AID1430, AID1632, AID2516, AID2560, AID2579, AID2600, AID449725, AID492951]. It is filed as functional.

Test [6] addresses Glucose-6-phosphate 1-dehydrogenase (Homo sapiens, UniProt P11413). Put plainly: human G6PD enzyme inhibitors, dose response, selectivity assay for P. falciparum G6PD inhibitor project, biochemical, fluorescence (AID 504792). It is filed as functional.
Test [7] in a line: THP-1 cell cytotoxicity, dose response, cytotoxicity control for non-replicating M. tuberculosis project (AID 489025). The test is classed as functional.
Test [8] concerns the target Eukaryotic translation initiation factor 4E (Mus musculus, UniProt P63073). The test can be described thus: eIF4E–eIF4G protein interaction inhibitors, dose response, biochemical, TR-FRET (AID 855).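 Further: potency for disrupting eIF4E binding to eIF4GI seen as loss of FRET.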 The test is classed as functional.
Test [9] concerns the target DNA dC->dU-editing enzyme APOBEC-3G (Homo sapiens, UniProt Q9HC16). Put plainly: Dose Response confirmation of small molecule APOBEC3G DNA Deaminase Inhibitors via a fluorescence-based single-stranded DNA deaminase assay. [Related pubchem assays (depositor defined):AID493012, AID493028]. The test is classed as functional.
Test [10] is described as follows: Vero E6 cell cytotoxicity, dose response, cytotoxicity control for non-replicating M. tuberculosis project, secondary assay (AID 492998). It is filed as functional, VeroE6. The settings on record: Vero C1008.
The next test is described as follows: cells. The test is classed as functional.
For test [11], the target named is Mitochondrial peptide methionine sulfoxide reductase (Bos taurus, UniProt P54149). Put plainly: Absorbance-based biochemical high throughput dose response assay for activators of Methionine sulfoxide reductase A (MsrA). It is filed as functional.
A short description of test [12]: P. falciparum late gametocyte killing, dose response, luminescence (AID 1117278).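 Further: gametocytes exposed to compound for 24 hours.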 It is filed as functional, cell-based.
The nature of test [13]: Jurkat T cell cytotoxicity, dose response, cytotoxicity control for P. falciparum gametocyte viability project, luminescence (AID 1117277).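 Further: potency reflects loss of cellular ATP meaning fewer viable cells.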 It is filed as functional, cell-based.

T2 sequence (P0DMV8 whole entry): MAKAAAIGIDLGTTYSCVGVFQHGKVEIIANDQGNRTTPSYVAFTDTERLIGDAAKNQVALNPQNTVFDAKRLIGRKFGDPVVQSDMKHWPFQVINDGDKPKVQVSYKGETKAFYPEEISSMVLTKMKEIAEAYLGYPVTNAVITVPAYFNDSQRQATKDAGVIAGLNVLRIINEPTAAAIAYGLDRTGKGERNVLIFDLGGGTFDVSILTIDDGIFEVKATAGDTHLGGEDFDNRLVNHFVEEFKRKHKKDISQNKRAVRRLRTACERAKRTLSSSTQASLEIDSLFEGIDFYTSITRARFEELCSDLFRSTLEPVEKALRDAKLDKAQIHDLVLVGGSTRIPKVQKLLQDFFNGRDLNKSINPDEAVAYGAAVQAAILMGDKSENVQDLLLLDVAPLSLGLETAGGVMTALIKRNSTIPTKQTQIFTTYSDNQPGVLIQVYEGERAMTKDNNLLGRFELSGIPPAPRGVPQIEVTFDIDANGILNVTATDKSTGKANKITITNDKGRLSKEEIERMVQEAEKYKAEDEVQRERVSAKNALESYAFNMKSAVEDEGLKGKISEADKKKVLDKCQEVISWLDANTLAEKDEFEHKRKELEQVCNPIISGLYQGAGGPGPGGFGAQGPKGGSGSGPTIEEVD
Cytochrome P450 2D6, sequence (P10635 whole entry): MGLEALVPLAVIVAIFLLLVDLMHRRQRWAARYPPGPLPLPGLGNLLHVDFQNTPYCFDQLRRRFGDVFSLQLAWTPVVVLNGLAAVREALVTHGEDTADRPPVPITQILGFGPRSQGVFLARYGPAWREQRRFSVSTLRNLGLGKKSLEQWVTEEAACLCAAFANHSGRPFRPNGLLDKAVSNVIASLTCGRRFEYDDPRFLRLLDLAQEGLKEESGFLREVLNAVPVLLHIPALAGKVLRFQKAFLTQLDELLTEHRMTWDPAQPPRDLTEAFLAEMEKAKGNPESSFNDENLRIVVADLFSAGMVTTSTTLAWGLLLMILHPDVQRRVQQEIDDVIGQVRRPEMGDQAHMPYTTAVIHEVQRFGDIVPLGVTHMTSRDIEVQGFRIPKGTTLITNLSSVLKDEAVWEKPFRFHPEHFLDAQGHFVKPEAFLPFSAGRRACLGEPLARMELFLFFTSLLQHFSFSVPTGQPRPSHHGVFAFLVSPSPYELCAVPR
Mitochondrial peptide methionine sulfoxide reductase, sequence (P54149 whole entry): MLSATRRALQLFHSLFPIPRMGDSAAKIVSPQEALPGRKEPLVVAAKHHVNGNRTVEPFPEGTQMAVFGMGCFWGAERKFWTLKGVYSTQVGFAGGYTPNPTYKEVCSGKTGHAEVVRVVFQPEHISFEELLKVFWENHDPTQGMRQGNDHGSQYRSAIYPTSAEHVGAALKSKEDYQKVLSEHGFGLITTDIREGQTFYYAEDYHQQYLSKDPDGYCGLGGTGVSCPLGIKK
Glucose-6-phosphate 1-dehydrogenase, sequence (P11413 whole entry): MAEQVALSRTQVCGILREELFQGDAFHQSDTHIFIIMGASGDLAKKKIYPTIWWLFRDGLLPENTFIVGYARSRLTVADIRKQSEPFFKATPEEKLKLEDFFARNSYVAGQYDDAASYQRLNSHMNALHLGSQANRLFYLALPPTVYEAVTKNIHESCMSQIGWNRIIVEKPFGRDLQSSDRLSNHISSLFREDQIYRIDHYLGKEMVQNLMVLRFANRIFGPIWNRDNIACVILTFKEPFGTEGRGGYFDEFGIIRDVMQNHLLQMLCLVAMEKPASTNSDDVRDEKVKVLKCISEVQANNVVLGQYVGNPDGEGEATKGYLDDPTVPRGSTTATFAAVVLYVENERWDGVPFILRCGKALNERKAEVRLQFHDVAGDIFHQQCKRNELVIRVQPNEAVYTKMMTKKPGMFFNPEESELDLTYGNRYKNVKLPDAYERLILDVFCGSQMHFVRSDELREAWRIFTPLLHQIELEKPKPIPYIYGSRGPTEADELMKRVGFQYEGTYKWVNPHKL
DNA dC->dU-editing enzyme APOBEC-3G, sequence (Q9HC16 whole entry): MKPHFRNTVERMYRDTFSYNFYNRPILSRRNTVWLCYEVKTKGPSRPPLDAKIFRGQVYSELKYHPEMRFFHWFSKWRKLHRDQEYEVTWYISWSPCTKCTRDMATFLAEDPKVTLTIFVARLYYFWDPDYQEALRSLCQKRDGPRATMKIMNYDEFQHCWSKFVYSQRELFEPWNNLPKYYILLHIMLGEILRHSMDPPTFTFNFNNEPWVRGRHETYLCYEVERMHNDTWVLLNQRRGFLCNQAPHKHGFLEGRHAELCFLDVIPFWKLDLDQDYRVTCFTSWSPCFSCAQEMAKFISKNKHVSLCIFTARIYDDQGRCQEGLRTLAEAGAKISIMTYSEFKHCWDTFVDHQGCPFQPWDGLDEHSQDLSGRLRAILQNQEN
Aspartyl aminopeptidase, sequence (Q8I2J3 whole entry): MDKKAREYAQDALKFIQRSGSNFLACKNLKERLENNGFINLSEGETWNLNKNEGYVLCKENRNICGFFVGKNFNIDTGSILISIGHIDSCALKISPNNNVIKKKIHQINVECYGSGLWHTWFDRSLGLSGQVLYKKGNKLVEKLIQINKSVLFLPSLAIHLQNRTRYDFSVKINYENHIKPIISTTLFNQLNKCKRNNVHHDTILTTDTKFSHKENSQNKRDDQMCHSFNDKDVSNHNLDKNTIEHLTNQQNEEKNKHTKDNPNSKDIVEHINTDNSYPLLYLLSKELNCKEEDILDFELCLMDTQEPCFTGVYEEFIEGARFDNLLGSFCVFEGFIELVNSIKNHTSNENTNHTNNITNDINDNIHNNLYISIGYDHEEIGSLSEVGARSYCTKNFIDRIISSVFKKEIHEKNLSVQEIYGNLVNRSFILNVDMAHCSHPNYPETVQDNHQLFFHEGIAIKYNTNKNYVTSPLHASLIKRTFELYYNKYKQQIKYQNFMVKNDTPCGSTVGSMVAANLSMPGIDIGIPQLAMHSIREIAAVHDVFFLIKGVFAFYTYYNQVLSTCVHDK
Eukaryotic translation initiation factor 4E, sequence (P63073 whole entry): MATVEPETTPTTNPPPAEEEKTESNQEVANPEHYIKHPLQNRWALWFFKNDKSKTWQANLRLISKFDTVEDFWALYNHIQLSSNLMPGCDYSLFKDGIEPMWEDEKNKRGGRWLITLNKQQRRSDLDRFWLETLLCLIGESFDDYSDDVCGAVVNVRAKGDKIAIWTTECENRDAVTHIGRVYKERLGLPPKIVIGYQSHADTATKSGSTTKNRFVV
Large T antigen, sequence (P03070 whole entry): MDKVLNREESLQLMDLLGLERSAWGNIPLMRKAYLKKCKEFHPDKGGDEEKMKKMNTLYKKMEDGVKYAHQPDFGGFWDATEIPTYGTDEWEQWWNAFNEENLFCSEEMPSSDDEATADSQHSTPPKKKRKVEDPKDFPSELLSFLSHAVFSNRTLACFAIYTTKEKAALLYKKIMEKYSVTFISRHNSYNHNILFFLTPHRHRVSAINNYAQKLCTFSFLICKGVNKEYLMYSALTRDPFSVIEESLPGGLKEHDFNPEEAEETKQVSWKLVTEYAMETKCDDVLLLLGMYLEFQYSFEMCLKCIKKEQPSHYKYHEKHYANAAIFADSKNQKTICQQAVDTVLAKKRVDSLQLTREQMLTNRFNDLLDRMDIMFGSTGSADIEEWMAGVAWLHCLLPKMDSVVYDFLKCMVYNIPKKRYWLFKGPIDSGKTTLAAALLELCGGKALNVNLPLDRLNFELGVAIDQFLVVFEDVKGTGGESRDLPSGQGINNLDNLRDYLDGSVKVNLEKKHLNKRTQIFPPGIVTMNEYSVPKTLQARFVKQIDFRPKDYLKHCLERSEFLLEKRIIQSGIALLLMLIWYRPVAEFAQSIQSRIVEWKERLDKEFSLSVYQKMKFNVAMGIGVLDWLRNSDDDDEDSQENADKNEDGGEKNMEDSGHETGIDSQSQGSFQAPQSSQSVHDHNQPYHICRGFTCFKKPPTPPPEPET
Mannose-6-phosphate isomerase, sequence (P34949 whole entry): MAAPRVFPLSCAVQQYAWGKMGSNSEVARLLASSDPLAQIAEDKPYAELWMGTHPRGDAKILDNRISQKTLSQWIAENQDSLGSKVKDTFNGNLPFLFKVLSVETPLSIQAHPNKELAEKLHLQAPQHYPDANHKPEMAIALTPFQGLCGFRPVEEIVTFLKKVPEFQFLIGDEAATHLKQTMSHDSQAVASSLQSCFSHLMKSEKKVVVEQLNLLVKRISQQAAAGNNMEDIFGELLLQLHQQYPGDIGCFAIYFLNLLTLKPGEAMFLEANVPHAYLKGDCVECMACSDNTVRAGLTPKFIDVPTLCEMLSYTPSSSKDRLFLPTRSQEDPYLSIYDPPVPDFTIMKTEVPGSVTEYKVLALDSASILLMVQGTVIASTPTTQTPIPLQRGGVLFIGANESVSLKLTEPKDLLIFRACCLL
Procathepsin L, sequence (P07711 whole entry): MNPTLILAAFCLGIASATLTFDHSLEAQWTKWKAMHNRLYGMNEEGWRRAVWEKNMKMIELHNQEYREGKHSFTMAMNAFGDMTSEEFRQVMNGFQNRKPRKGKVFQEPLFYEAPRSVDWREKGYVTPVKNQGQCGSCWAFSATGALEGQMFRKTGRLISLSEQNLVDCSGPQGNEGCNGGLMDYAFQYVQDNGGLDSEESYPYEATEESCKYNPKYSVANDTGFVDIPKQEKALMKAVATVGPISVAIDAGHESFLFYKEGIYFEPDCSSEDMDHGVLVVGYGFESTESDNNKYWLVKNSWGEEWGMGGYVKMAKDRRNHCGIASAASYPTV
Vasopressin V1a receptor, sequence (P37288 whole entry): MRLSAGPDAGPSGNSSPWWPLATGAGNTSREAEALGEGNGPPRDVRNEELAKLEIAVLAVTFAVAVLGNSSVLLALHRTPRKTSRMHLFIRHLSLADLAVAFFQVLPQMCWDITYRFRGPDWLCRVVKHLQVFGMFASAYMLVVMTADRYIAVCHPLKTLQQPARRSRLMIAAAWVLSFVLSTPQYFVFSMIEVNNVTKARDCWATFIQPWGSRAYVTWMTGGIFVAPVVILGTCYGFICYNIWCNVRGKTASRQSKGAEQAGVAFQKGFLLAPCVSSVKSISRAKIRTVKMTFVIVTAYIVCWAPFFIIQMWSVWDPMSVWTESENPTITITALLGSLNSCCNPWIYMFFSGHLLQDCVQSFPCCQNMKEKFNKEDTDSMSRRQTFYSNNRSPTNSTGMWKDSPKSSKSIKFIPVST

On to `COC(=O)[C@@H]1C[C@H]1[C@@H](NC(=O)OCc1ccccc1)c1ccccc1`, for which the AC50 on Cytochrome P450 2D6 was 12.6 µM (inconclusive).

A word on the IC50: it is the point on the concentration scale where inhibition reaches its midpoint. The term EC50 denotes the concentration giving half of the maximal effect. In the case of `C/N=c1\[nH]c2cc([N+](=O)[O-])c([N+](=O)[O-])cc2[nH]\c1=N\C`, the IC50 on Galanin receptor type 2 was 1.29 µM (active). Besides, the EC50 is > 29.9 µM (not active) on Vasopressin V1a receptor, > 29.9 µM (inactive) on Ion channel NompC, > 29.9 µM (not active) on Oxytocin receptor and > 29.9 µM (not active) on Mucolipin-3.

Consider `Cc1c(NC(=O)Nc2ccc(Cl)cc2)c(=O)n(-c2ccccc2)n1C`, for which the IC50 in test [1] and in [2] was > 100 µM (not active) throughout.

As to `Cc1ccccc1-n1sc2cc(F)ccc2c1=O`, the 50% inhibitory concentration (IC50) on Aspartyl aminopeptidase is 0.648 µM (active); against Procathepsin L it was > 59.6 µM (not active); at Large T antigen it was 13.1 µM (active); in test [4] it was 8.95 µM (active); in [5], > 100 µM (inactive); at Hexokinase, 4.8 µM (active). In addition, the IC50 in test [6] is 13.9 µM (active); in [8] it was 36.7 µM (inactive); in [9], 9.02 µM (active); in “cells”, 23.7 µM (active); in [12], 39.6 µM (inactive); in [13], 6.73 µM (active). Besides, the CC50 is 13 µM (active) in test [3], 19 µM (active) in [7] and 12.1 µM (active) in test [10]. Moreover, the EC50 in [11] is > 104 µM (inactive).

The values above are taken from ChEMBL document CHEMBL1201862, “PubChem BioAssay data set” (2004).
